# Target: T1, hS1P1 (Homo sapiens, UniProt P21453)
# T1 construct: expressed in transfected cells
# Assay: hS1P1 EC50 (S1P receptor Ca2+ flux protocol, CHO K1 Gqi5 cells)
# Assay type: cell-based
# Experimental: S1P receptor activity may also be measured by an S1P receptor (e.g., hS1P1, hS1P3, rS1P1, rS1P3 and parental cell) Ca^2+ Flux protocol as described below:
# 1. Material • a. FLIPR buffer: 1×HBSS; 10 mM HEPES • b. Cell growth media: • i. human and rat S1P1 and S1P3: F12-Ham's media; 10% FBS (qualified); 1× Pen/Strep/Glu; 300 ug/mL Hygromycin; 400 ug/mL Geneticin • ii. Parental cell: human and rat S1P1 and S1P3: F12-Ham's media; 10% FBS (qualified); 1× Pen/Strep/Glu; 300 ug/mL Hygromycin; • c. Cell seeding media; F12-Ham's media; 10% FBS (Charcoal/dextran stripped); 1× Pen/Strep/Glu; • d. Cell dissociation buffer: Versene from Invitrogen • e. Agonist (S1P) dissolving buffer: 0.4% (w/v) fatty-acid free BSA (Sigma #A8806) in FLIPR buffer • f. FLIPR dye: BD PBX Calcium assay kit; Cat#641077 is composed of Calcium indicator (Cat#850000) and 100×PBX signal enhancer (cat#850001). The 100×PBX signal enhancer is diluted into FLIPR buffer 1:100 and the calcium indicator is then added at 1:1000 ratio. • g. Cell plates (96-well): Greiner Cat#655090 • h. Compound plates (96-well): Costar #3365 • i. S1P stock solution preparation: S1P is purchased from CalBioChem (Catalog #970471; 1 mg vial; custom prep using methanol, & nitrogen gas drying inside glass vial; Storage @ −20° C.). Dissolve 1 vial of S1P into 26.4 ml of agonist dissolving buffer in a 50 ml centrifuge tube; Remove label from bottle of S1P, open and drop entire bottle into tube. Sonicate at 37° for ½ hour. Clear solution of 100 μM will result. This stock solution is aliquoted and stored at −80 C
# 2. Cell line maintenance • a. V5 tags were added at the N-terminus of hS1P1, hS1P3, rS1P1 and rS1P3. All four genes were transfected into CHO K1 cells which stably express Gqi5. • b. hS1P1 and hS1P3 were established as stable clones and rS1P1 and rS1P3 were sorted by anti V5 tag and established as stable pools after sorting. • c. Parental cell line CHO/K1 Gqi5 is used as the control. • d. All the cells are maintained in cell growth media and splitted twice a week using Versene. • e. All the cell lines are used under passage 30.
# 3. Assay protocol • a. Cell seeding: Cells are lifted from the flask by Versene and seeded in cell plates at 50K/well in cell seeding media. Cells are grown overnight at 37 degree. • b. Cell loading: Cell seeding media is discarded. Cells are loaded with 50 ul of FLIPR dye at RT for 90 min. Signal is stable for up to 5 h after dye loading. • c. Agonist (S1P) preparation: Frozen stock of S1P is thawed out and sonicated at 37 c for 30 minutes every time before use. The stock is then diluted into FLIPR buffer at proper concentration. • d. Compound preparation: Compounds are dissolved in DMSO. A 3×, 10 point dilution of the compounds are carried out in DMSO. Then the compounds are diluted into assay buffer 133× so that the DMSO concentration is 0.75%. • e. Activity measurement: The fluorescence signal change of the cells upon compound addition is monitored in FLIPRtetra. 25 ul of compound is transferred into the cell plates (50 ul of FLIPR dye; DMSO concentration: 0.25%). Signal is recorded for 90 sec after compound addition. Then 50 ul of 500 nM S1P is added in the cell plate, and signal is recorded for 90 seconds upon addition.
# 4. Data analysis • a. Peak value is calculated for each compound/S1P addition • b. The peak value of S1P at 200 nM is used as high control (100%), and the peak value of buffer only is used as low control (0%). • c. Data is normalized against high and low controls using the following equation: POC—S=100*(RAW−LO)/(HI−LO) • d. Peak value is plotted against the concentration of compound. • e. Curve is fitted using the 4 parameter fit: Y=(A+(B/(1+((x/C)^D)))) • where: • Y is POC_S (or POC) • X is compound concentration • A is the minimum (EC50min or IC50min) • B is the maximum (EC50max or IC50max) • C is the inflection point (EC50IP or IC50IP) • D is the hill slope (EC50 slope or IC50 slope).
# T1 sequence (P21453 whole entry): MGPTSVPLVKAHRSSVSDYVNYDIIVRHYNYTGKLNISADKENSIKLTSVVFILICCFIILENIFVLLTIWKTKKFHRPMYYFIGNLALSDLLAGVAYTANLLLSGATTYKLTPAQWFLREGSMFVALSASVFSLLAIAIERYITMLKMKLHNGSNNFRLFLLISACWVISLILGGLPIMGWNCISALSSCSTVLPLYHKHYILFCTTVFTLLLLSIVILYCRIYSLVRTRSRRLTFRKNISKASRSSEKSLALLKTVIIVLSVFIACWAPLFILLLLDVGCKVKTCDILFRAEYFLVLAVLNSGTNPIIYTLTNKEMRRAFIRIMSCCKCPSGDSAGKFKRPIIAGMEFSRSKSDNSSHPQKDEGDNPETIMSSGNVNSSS
row,Compound,EC50 [µM]
1,"O=C(O)C1CCN(Cc2ccc(-c3cc4cc(C5CCCCC5)ccc4o3)cc2)CC1 [Compound 7, 1-(4-(5-cyclohexylbenzofuran-2-yl)benzyl)piperidine-4-carboxylic acid]",> 25
2,"CCCCc1ccc2oc(-c3ccc(CN4CCC(C(=O)O)CC4)cc3)cc2c1 [Compound 8, 1-((4-(5-Butylbenzofuran-2-yl)phenyl)methyl)piperidine-4-carboxylic acid]",> 25
3,"O=C(O)C1CCN(Cc2ccc(-c3cc4cc(Cc5ccccc5)ccc4o3)cc2)CC1 [Compound 9, 1-((4-(5-Benzylbenzofuran-2-yl)phenyl)methyl)piperidine-4-carboxylic acid]",≥ 25
4,"O=C(O)C1CN(Cc2ccc(-c3cc4cc(CCc5ccccc5)ccc4o3)cc2)C1 [Compound 11, 1-((4-(5-phenethylbenzofuran-2-yl)phenyl)methyl)azetidine-3-carboxylic acid]",≥ 25
5,"CC(C)Cc1ccc2oc(-c3ccc(CN4CCC(C(=O)O)CC4)cc3)cc2c1 [Compound 13, 1-(4-(5-isobutylbenzofuran-2-yl)benzyl)piperidine-4-carboxylic acid]",> 25
6,"CCCCOc1ccc2cc(-c3ccc(CN4CC(C(=O)O)C4)cc3)oc2c1 [Compound 21, 1-((4-(6-Butoxybenzofuran-2-yl)phenyl)methyl)azetidine-3-carboxylic acid]",0.2
7,"CCCCOc1ccc2oc(-c3ncc(CN4CC(C(=O)O)C4)s3)cc2c1 [Compound 22, 1-((2-(5-butoxybenzofuran-2-yl)thiazol-5-yl)methyl)azetidine-3-carboxylic acid]",1.1
8,"CCCCOc1ccc2oc(-c3ccc(CN4CC(C(=O)O)C4)cc3F)cc2c1 [Compound 23, 1-((4-(5-Butoxybenzofuran-2-yl)3-fluorophenyl)methyl)azetidine-3-carboxylic acid]",0.52
9,"O=C(O)C1CN(Cc2ccc(-c3cc4cc(-c5cccs5)ccc4o3)cc2)C1 [Compound 28, 1-((4-(5-(thiophen-2-yl)benzofuran-2-yl)phenyl)methyl)azetidine-3-carboxylic acid]",≥ 25
10,"CC(C)(CC(=O)O)NCc1ccc(-c2cc3cc(Cc4ccccc4)ccc3o2)c(F)c1 [Compound 46, 3-((4-(5-Benzylbenzofuran-2-yl)-3-fluorophenyl)methylamino)-3-methylbutanoic acid]",> 25

# Reference: patent publication US7919519B2, “S1P receptor modulating compounds and use thereof” (Epix Pharmaceuticals Inc., priority 2005, dated 2011)
